The source of these data is patent EP0119450A1, “Preparation of aminopyrazolines and intermediates used therein” (THE WELLCOME FOUNDATION LIMITED, priority 1983, dated 1984).

The target in one data set is Cyclooxygenase. Put plainly: Enzyme assay, inhibition of cyclooxygenase (method based on Borgeat et al). The format is biochemical.
Another data set concerns the target Lipoxygenase. Put plainly: Enzyme assay, inhibition of lipoxygenase (method based on Borgeat et al). Format: biochemical.
Data set [1] can be described thus: Storage stability at normal room temperature in sealed containers, analysed by T.l.c. The conditions noted are these: freshly prepared samples, T.l.c. at regular intervals. The format is physicochemical. An excerpt: Freshly prepared samples of the compound of Example 29/30B and the compound 2B (the latter also being disclosed in European Specification 55 418) were stored separately at normal room temperature in sealed containers and analysed at regular intervals by T.l.c.

The subject of another data set is Prostaglandin E2. Kind of data set: Prostaglandin synthesis in carrageenin sponge exudates. The conditions noted are these: Rattus norvegicus, po; male rats, carrageenin sponge exudate collected at 24 hours; read-out: ED50 Prostaglandin Production (rat). The format is in vivo. Here is the method: (§1) The compound of Example 29/3UB was subjected to the following tests. Results are given in Table II as ED50 mg/kg upon oral administration.
(§2) Inflammatory exudates were collected 24 hours after the subcutaneous implantation in male rats (180-220g) of sterile polyester sponges impregnated with 2% carrageenin. Prostaglandin E2 concentrations in sponge exudates were measured by bioassay and total leucocyte numbers were estimated using counting chambers and phase contrast microscopy. Drugs were administered orally in aqueous solution to groups of five animals at the time of sponge implantation, 5-8 hours later and 3 hours before sponge removal. Results are expressed as a percentage of control values obtained from similar groups of animals receiving vehicle alone. ED50 values were calculated for active compounds. The full dose-response data for lead compounds were subjected to regression analysis and ED50 values with 95% confidence limits were obtained.

A further data set deals with total leucocyte numbers. Put plainly: Leucocyte accumulation in carrageenin sponge exudates. Format: in vivo. The conditions noted are these: Rattus norvegicus, po, male rats, carrageenin sponge exudate collected at 24 hours. On the procedure: as §1, §2
For the next data set, the system named is female rats. Kind of data set: Carrageenin-induced paw oedema. The format is in vivo. The conditions noted are these: Rattus norvegicus, po, swelling measured 1-4 hours after carrageenin. On the procedure:
as §1
Oedema was induced by the sub-plantar injection of 2% carrageenin (0.1 ml) in the hind paws of female rats (100-130g). Swelling was measured 1-4 hours following carrageenin injection using a micrometer gauge. Drugs in aqueous solution were administered orally to groups of five rats at the time of carrageenin injection. Mean swelling was expressed as a percentage of control values obtained from similar groups of animals receiving vehicle alone.
In general terms: Carrageenan injected into the paw causes an acute inflammation.

For another data set, the system named is female mice. Kind of data set: Phenylbenzoquinone (PBQ) induced writhing. The conditions noted are these: Mus musculus, po, p.o. 1 hour before PBQ 2.5 mg/kg i.p. The format is in vivo. On the procedure: as §1
Writhing was induced in groups of 5 female mice (20-25g) following the intraperitoneal injection of phenylbenzoquinone (PBQ; 2.5 mg/kg). Anti- nociceptive effects of drugs were assessed by observing the reduction in writhing responses 10-12½ min after PBQ injection. Drugs were administered orally in aqueous solution 1 hour before PBQ injection and drug effects were expressed as a percentage of control values obtained from animals receiving vehicle alone.
(Writhing tests count abdominal constrictions after an irritant is injected.)

On to `CCCN(C=O)C1=NN(c2cccc(C(F)(F)F)c2)CC1` [Example 5A, N-(n-propyl)-N-[1-(3-trifluoromethylphenyl)-2-pyrazolin-3-yl]-formamide], for which the IC50 at Cyclooxygenase stood at 10 µM; against Lipoxygenase, 1 µM.

As to `O=CN(CC=Cc1ccccc1)C1=NN(c2cccc(C(F)(F)F)c2)CC1` [Example 9A, N-(cinnamyl)-N-[1-(3-trifluoromethylphenyl)-2-pyrazolin-3-yl]formamide], the half-maximal inhibitory concentration (IC50) worked out at 2 µM against Cyclooxygenase and 1.5 µM at Lipoxygenase.

Regarding `O=CN(CC1CC1)C1=NN(c2cccc(C(F)(F)F)c2)CC1` [Example 8A, N-(cyclopropylmethyl)-N-[1-(3-trifluoromethylphenyl)-2-pyrazolin-3-yl]formamide], the IC50 turned out to be 8 µM against Cyclooxygenase and 2 µM against Lipoxygenase.

As to `C=CCN(C=O)C1=NN(c2cccc(C(F)(F)F)c2)CC1` [Example 3A, N-(2-propenyl)-N-[1-(3-trifluoromethylphenyl)-2-pyrazolin-3-yl]formamide], the IC50 against Cyclooxygenase was found to be 5 µM; against Lipoxygenase, 2 µM.

Consider `CC(=O)N(C)C1=NN(c2cccc(C(F)(F)F)c2)CC1` [29&30B, N-methyl-N-[1-(3-trifluoromethylphenyl)-2-pyrazolin-3-yl] acetamide], for which the decomposition on storage entry in data set [1] is given as “no significant decomposition, 2 years from the outset of the Experiment”. Also, the IC50 on Cyclooxygenase and at Lipoxygenase was 1 µM throughout. Also, the ED50 with Prostaglandin E2 was found to be 35 mg/kg; in the data set on total leucocyte numbers, 57 mg/kg; in the data set with female rats it was 15 mg/kg; in the data set on female mice it was 45 mg/kg.

On to `O=CN(CC=CCCl)C1=NN(c2cccc(C(F)(F)F)c2)CC1` [Example 34], for which the IC50 is 10 µM against Cyclooxygenase and 3 µM against Lipoxygenase.

Consider `O=CN(Cc1ccc(F)cc1)C1=NN(c2ccc(Br)c(C(F)(F)F)c2)CC1` [Example 18B, N-[1-(4-bromo-3-trifluoromethylphenyl)-2-pyrazolin-3-yl]-N-(4-fluorobenzyl)formamide], for which the IC50 was found to be 2 µM on Cyclooxygenase and 5 µM at Lipoxygenase.

For `CNC1=NN(c2cccc(C(F)(F)F)c2)CC1` [Example 2B, 3-methylamino-1-(3-trifluoromethylphenyl)-2-pyrazoline], the decomposition on storage entry in data set [1] is “significant decomposition after six months”.

Regarding `C#CCN(C=O)C1=NN(c2cccc(C(F)(F)F)c2)CC1` [Example 4A, N-(2-propynyl)-N-[1-(3-trifluoromethylphenyl)-2-pyrazolin-3-yl]formamide], the IC50 on Cyclooxygenase was 3 µM; at Lipoxygenase it was 0.5 µM.

Regarding `CC(=O)N(C)C1=NN(c2ccc(Br)c(C(F)(F)F)c2)CC1` [Example 45, N-methyl-N-[1-(4-bromo-3-trifluoromethylphenyl)-2-pyrazolin-3-yl]acetamide], the IC50 against Cyclooxygenase and against Lipoxygenase was 1 µM in each case.

In the case of `CCC(=O)N(C)C1=NN(c2cccc(C(F)(F)F)c2)CC1` [Example 32, N-methyl-N-[1-(3-trifluoromethylphenyl)-2-pyrazolin-3-yl]propionamide], the IC50 was > 10 µM at Cyclooxygenase and 1 µM at Lipoxygenase.

In general, IC50 refers to the concentration needed to halve the response being measured. Low values mean higher potency, high ones lower potency. By ED50 is commonly meant the dose that gives a 50% effect, or the effect in half of the subjects.
